Test results published in patent US8133903B2, “Methods of use of inhibitors of phosphodiesterases and modulators of nitric oxide, reactive oxygen species, and metalloproteinases in the treatment of peyronie's disease, arteriosclerosis and other fibrotic diseases” (Los Angeles Biomedical Research Institute at Harbor—UCLA …, priority 2003, dated 2012).

Experiments:
[1] = tested on: fibroblast cultures from human PD plaque; assay: TUNEL apoptosis in fibroblast cultures from human PD plaque
Experimental: Cells incubated in 8-well chamber slides were allowed to grow to 50-60% confluence. At this point, cells received in duplicate sildenafil, pentoxifylline, or 8-Br cGMP at the concentrations indicated, and were allowed to propagate for 3 days without changing medium. In certain cases SNAP was added and replaced daily after changing the medium (Vernet et al., 2002). All studies were done in duplicate or triplicate.
For cell cultures, the cells were fixed in 4% formaldehyde for 30 min on ice, and post-fixed with ethanol-acetic acid 2/1 for 5 min at −20 C. Then the above procedure was applied, except that the proteinase K was omitted.
The number of positive cells was counted in a computerized grid against the total number of cells determined by counterstaining, and results were expressed as a percentage of positive cells over total cells. […] The apoptotic index (rate of programmed cell death) was calculated as the percentage of apoptotic cells within the total number of cells in a given area (non-apoptotic nuclei plus apoptotic cells). In all cases, five non-overlapping fields were screened per tissue section or per well. Three sections per tissue specimen from groups of five animals, or two wells per experimental point in cell incubations, were then used to calculate the means+/−SEM.

[2] = tested on: fibroblast cultures from human PD plaque; assay: cGMP and cAMP enzyme immunoassays in fibroblast cultures from human PD plaque; type: cell-based; details: for cGMP levels as % of control levels: 3-day incubation
From the text: (§1) Primary human cell cultures: Human fibroblast primary cultures were obtained from fragments of PD plaque or TA essentially according to Smith and Liu (2002), and their purity was established by immunohistochemistry, as detailed below. New primary cultures were obtained from fragments of PD plaque or TA that were washed in Hanks solution, minced in a fibroblast growth medium (FGM) (BioWhittaker Inc., Walkersville, Md.) and 20% fetal bovine serum (FBS), and plated onto a 25 cm^2 culture flask per specimen (Vernet et al., 2002). Fragments were left undisturbed until attachment for about 1 week. Once the monolayer started to develop, the fragment was removed. Medium with 10% FBS was changed once a week and when cells achieved approximately 80% confluence (3-4 weeks) they were trypsinized and split onto 10 cm plates. Cells were allowed to grow again to 80% confluence, with medium changed twice a week. The cells collected from this passage were considered as passage 1. Successive passages were performed at 1/3 split ratio, and studies were carried out on cells from passages 3 onwards. Studies were performed with PD cells from the 4th to the 10th passages. Cells were incubated on: a) 75 cm^2 flasks for RNA isolation; b) 6-well plates for protein isolation; and c) 8-well removable chambers for cytochemistry and immunocytochemistry. Treatments with different additions were initiated 24 hours after plating and continued for different periods.
The presence of PDEs in the PD fibroblasts in culture was confirmed by the ability of increasing concentrations of sildenafil and pentoxifylline to raise the basal cGMP and cAMP levels in triplicate wells, either in the absence or the presence of the NO donor, SNAP (S-nitroso-N-acetyl penicillamine) (Alexis Biochemicals, San Diego, Calif.) added daily at 100 μM, as measured by cGMP and cAMP EIA (enzyme immuno absorption) kits (Cayman Chemical, Ann Arbor, Mich.). Experiments were performed in duplicate. Values were expressed as pmoles cGMP or cAMP/mg protein. To normalize for differences between experiments, the changes in cGMP and cAMP levels exerted by sildenafil and pentoxifylline were expressed as % of their respective control values in the absence of the PDE inhibitors.

[3] = tested on: fibroblast cultures from human PD plaque; assay: Collagen I/III and ASMA immunocytochemistry with QIA in fibroblast cultures from human PD plaque; type: cell-based; details: for number of ASMA positive cells (myofibroblasts): control 37%; for synthesis of collagen III: PDE inhibitors
From the text: as §1
In the case of cell cultures, at completion of incubations, slides were removed from the chambers and cells were fixed for immunodetection for 20 min in 4% buffered formalin at room temperature for α-smooth muscle actin (ASMA) (as a myofibroblast marker), vimentin (as a general fibroblast marker), and in certain cases for PDE5 and PDE4, or in ethanol at −20 C for collagen I and III (Vernet et al., 2002). The cells were quenched, blocked with normal goat serum and incubated with monoclonal primary antibodies for ASMA and vimentin (Sigma Immunohistology Kits, Sigma Chemical Co, St. Louis, Mo.), collagen I, and collagen III (1:40) (Chemicon International, Temecula, Calif.), overnight at 4° C. (Vernet et al., 2002; Ferrini et al., 2002). Processing was according with the manufacturer's instructions for ASMA, vimentin and collagen, consisting in the respective monoclonal antibodies and an anti-mouse biotinylated secondary antibody, followed by avidin-biotinylated HRP and the 3-amino-9-ethylcarbazol (AEC) chromogen. For PDE5A, the antibodies were as described above. Negative controls omitted the first antibodies or were replaced by IgG isotype at the same concentration of the first antibodies. Counterstaining was done with Mayer's hematoxylin. All the slides were mounted with Aqua Mount (Lerner, Pittsburgh, Pa.). For PDE4, the anti PDE4A and PDE4B affinity purified IgGs used for western blot was employed, and in addition the anti-PDE4A4 and anti-PDE4D (detecting variants 1-5) from the same source (FabGennix Inc.) were used.
(§2) The quantitation of the staining obtained by either histochemical or immunohisto/cytochemical techniques was performed by computerized densitometry using the ImagePro 4.01 program (Media Cybernetics, Silver Spring, Md.), coupled to an Olympus BHS microscope equipped with a Spot RT digital camera or VCC video camera (Wang et al., 2001; Ferrini et al., 2001a, 2001b; Davila et al., 2003b).

[4] = tested on: TGF-β1-induced fibrotic plaque in the rat tunica albuginea; assay: TGF-β1 rat model of Peyronie's disease, plaque and collagen deposition by Masson staining with QIA; type: in vivo; details: for plaque size (Masson staining, collagen fiber/cell-lacunae area ratio, width of the tunica): oral in drinking water, 100 mg/l, 45 days following TGF-β1 injection
Experimental: (§3) TGF-β1 rat model. Male Fisher 344 rats, 9-11 month old purchased from the NIH/NIA colony (Harlan Sprague-Dawley, Inc., San Diego, Calif.) and maintained under controlled temperature and lighting, were anesthetized and injected in the penile TA at the middle of the penis with either vehicle only (saline, group 1) or 0.5 μg recombinant human TGF-β1 (Biotech Diagnostic, Laguna Niguel, Calif., groups 2-5) as disclosed (Ferrini et al., 2002; Vernet et al., 2002). After the injection, groups 1 and 2 were given drinking water while the other groups received water with L-arginine (2.25 g/kg/day, group 3) (Moody et al., 1997), or sildenafil (10 mg/kg/day, group 4) or pentoxifylline (10 mg/kg/day, group 5). Forty-five days later, or as indicated, animals were sacrificed and perfused through the left ventricle with saline followed by 4% formalin ((Ferrini et al., 2002; Vernet et al., 2002). After the penises were excised, the penile skin was denuded by removing the glans and adhering non-crural tissue. The penile shaft was separated from the crura and 2-3 mm transverse slices were cut around the site of the saline or TGF-β1 injection. All tissues were post-fixed overnight in 4% formalin, washed in PBS and stored at 4° C.
In the case of tissue sections, the determinations of the collagen/smooth muscle ratio were carried out with Masson trichrome (Ferrini et al., 2002; Davila et al., 2003b) on adjacent 5 μm paraffin-embedded cross-sections from the human normal tunical or plaque tissues, or from a 2 mm area around the site of injection in the rat saline- and TGF-β1-injected shaft tissues. Other distal sections were obtained along the rat penile shaft.
as §2

[5] = tested on: TGF-β1-induced fibrotic plaque in the rat tunica albuginea; assay: TUNEL apoptosis in the TGF-β1-induced plaque of the rat tunica albuginea; type: in vivo; details: for apoptotic index in the plaque: oral in drinking water, 100 mg/l, 45 days following TGF-β1 injection
Experimental: as §3

[6] = tested on: normal human TA and PD fibroblast cultures; assay: Fibroblast numbers in normal human TA and PD cultures; type: cell-based; details: both normal human TA and PD cultures
From the text: as §1, with “Treatments with different additions were initiated 24 hours after plating and continued for different periods.” left out

[7] = cited from earlier work
PDE5A3 = PDE5A3 (Homo sapiens, UniProt O76074); details: cited from earlier work
[8] = in the presence of SNAP (100 uM), increasing concentrations

Structure (SMILES): Nc1nc2c(nc(Br)n2[C@@H]2O[C@@H]3COP(=O)(O)O[C@H]3[C@H]2O)c(=O)[nH]1 [8 Br-cGMP]
- apoptosis by TUNEL ([1]; 100 uM, control 7.5+/−0.4): 20.5+/−1.1 cells per field
- increase of apoptosis (apoptotic index, TUNEL, image analysis) ([1]; 3 days, did not achieve statistical significance): 2.3 fold
- intracellular cGMP levels ([2]; 100 uM, control 0.02): 1.83 nmoles/10^6 cells
- increase of cGMP levels in cell extracts ([2]; 8 Br-cGMP at 10 uM): 6.4 fold
- increase of cGMP levels in cell extracts ([2]; 8 Br-cGMP at 100 μM): 38.7 fold
- reduction in the number of cells expressing collagen I ([3]; 10 μM, 3 days): 30%
- ASMA expression per cell (myofibroblast differentiation) ([3]; 400 μM, 3 days): decreased significantly
- number of cells expressing collagen I ([3]; 400 μM, 3 days, compared with 10 μM): did not induce further decrease
- collagen I expression per cell ([3]; 3 days): reduced only moderately and non-significantly
- relative number of ASMA positive cells ([3]; 3 days): no effect
- collagen I production by the cells ([3]; levels as low as 10 uM): inhibited collagen I production

Structure (SMILES): N=C(N)NCCC[C@H](N)C(=O)O [L-arginine]
- size of the TGF-β1-induced plaque (Masson staining, collagen fiber/cell-lacunar area ratio) ([4]; oral L-arginine in drinking water (2.25%), 45 days after TGF-β1 injection): considerable decrease in the size
- apoptotic index (apoptotic cells/total number of cells) in the plaque ([5]; oral L-arginine (2.25%)): no significant difference
- number of apoptotic cells per field in the PD-like plaque ([5]; oral L-arginine (2.25%), vs control animals): increase

Structure (SMILES): CC(=O)N[C@H](C(=O)O)C(C)(C)SN=O [SNAP, S-Nitroso-N-acetyl penicillamine]
- fibroblast numbers [6]: reduced fibroblast numbers
- increase of cGMP levels in cell extracts ([2]; 100 uM SNAP, 3 days, daily replacement, basal 5.0+/−0.4 pmol/mg protein): 5.0 fold
- cAMP levels ([2]; after 3 days with SNAP, basal 42.6+/−12.7 pmol/mg protein): did not vary significantly
- collagen I synthesis in all the cells ([3]; NO donor in culture): inhibitory action
- myofibroblast differentiation ([3]; NO donor in culture): inhibitory action

Structure (SMILES): CC(=O)CCCCn1c(=O)c2c(ncn2C)n(C)c1=O [pentoxifylline]
- cGMP levels as % of control levels [2, 8]: did not increase significantly
- cAMP levels as % of control levels ([2]; in the presence of SNAP (100 uM), increasing concentrations, 3 days): very effective in increasing cAMP levels
- number of ASMA positive cells (myofibroblasts) ([3]; 3 days): about 24%
- synthesis of collagen III ([3]; 3 days): did not decrease, but even increased
- plaque size (Masson staining, collagen fiber/cell-lacunae area ratio, width of the tunica) [4]: considerable reduction in plaque size
- apoptotic index in the plaque [5]: intensification of the apoptotic index, especially for pentoxifylline

Structure (SMILES): CCCc1nn(C)c2c(=O)[nH]c(-c3cc(S(=O)(=O)N4CCN(C)CC4)ccc3OCC)nc12 [sildenafil]
- half-life [7]: 4 to 6 h
- sensitivity of PDE5A3 to sildenafil compared with PDE5A1 (PDE5A3): twice as sensitive
- cGMP levels ([2]; in the absence of SNAP): did not significantly stimulate
- cGMP levels as % of control levels [2, 8]: increased dose-dependently
- number of ASMA positive cells (myofibroblasts) ([3]; 3 days): about 24%
- synthesis of collagen III ([3]; 3 days): did not decrease, but even increased
- plaque size (Masson staining, collagen fiber/cell-lacunae area ratio, width of the tunica) [4]: considerable reduction in plaque size
- apoptotic index in the plaque [5]: intensification of the apoptotic index
